Test results from US9695155B2, “Herbicidal substituted pyrimidinyloxy benzene compounds” (E. I. DU PONT DE NEMOURS AND COMPANY, priority 2013, dated 2017).

What was measured:
soybean = test: Test E postemergence; format: in vivo, Glycine max
Description: (§1) Seeds of plant species selected from corn (Zea mays), soybean (Glycine max), velvetleaf (Abutilon theophrasti), lambsquarters (Chenopodium album), wild poinsettia (Euphorbia heterophylla), palmer pigweed (Amaranthus palmeri), waterhemp (common waterhemp, Amaranthus rudis), surinam grass (Brachiaria decumbens), large (Lg) crabgrass (Digitaria sanguinalis), Brazilian crabgrass (Digitaria horizontalis), fall panicum (Panicum dichotomiflorum), giant foxtail (Setaria faberii), green foxtail (Setaria viridis), goosegrass (Eleusine indica), johnsongrass (Sorghum halepense), ragweed (common ragweed, Ambrosia elatior), barnyardgrass (Echinochloa crus-galli), sandbur (southern sandbur, Cenchrus echinatus), arrowleaf sida (Sida rhombifolia), Italian ryegrass (Lolium multiflorum), dayflower (Virginia (VA) dayflower, Commelina virginica), field bindweed (Convolvulus arvensis), morningglory (Ipomoea coccinea), nightshade (eastern black nightshade, Solanum ptycanthum), kochia (Kochia scoparia), yellow nutsedge (Cyperus esculentus), cocklebur (common cocklebur, Xanthium strumarium), smartweed (ladysthumb smartweed, and hairy beggarticks (Bidens pilosa), were planted into a silt loam soil and treated preemergence with test chemicals formulated in a non-phytotoxic solvent mixture which included a surfactant.
(§2) At the same time, plants from these crop and weed species and also horseweed (Canada horseweed, Conyza canadensis), waterhemp_RES1, (ALS & Triazine resistant common waterhemp, Amaranthus rudis), and waterhemp_RES2, (ALS & HPPD resistant common waterhemp, Amaranthus rudis) were planted in pots containing Redi-Earth® planting medium (Scotts Company, 14111 Scottslawn Road, Marysville, Ohio 43041) comprising spaghnum peat moss, vermiculite, wetting agent and starter nutrients were treated with postemergence applications of test chemicals formulated in the same manner. Plants ranged in height from 2 to 18 cm for postemergence treatments (1- to 4-leaf stage). Treated plants and controls were maintained in a greenhouse for 14 to 21 days, after which time all species were compared to controls and visually evaluated. Plant response ratings, summarized in Table E, are based on a scale of 0 to 100 where 0 is no effect and 100 is complete control. A dash (-) response means no test result.

fall panicum = test: Test E postemergence; format: in vivo, Panicum dichotomiflorum
Description: as §1, §2

barnyardgrass = test: Test E postemergence; format: in vivo, Echinochloa crus-galli
Description: as §1, §2

sedge, umbrella = test: Test C flooded paddy test; format: in vivo, Cyperus difformis; conditions: Flood, scale 0 to 100 (0 no effect, 100 complete control), 13 to 15 days
Procedure, shortened: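 Flooded 3 cm over soil; compound into paddy water; depth kept constant. Greenhouse 13–15 d.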

[1] = Glycine max, post-emergence, Postemergence, 31 g ai/ha, scale 0 to 100
[2] = Glycine max, post-emergence, Postemergence, 62 g ai/ha, scale 0 to 100
[3] = Glycine max, post-emergence, Postemergence, 125 g ai/ha, scale 0 to 100
[4] = Glycine max, post-emergence, postemergence, 16 g ai/ha, scale 0 to 100, 0 no effect, 100 complete control
[5] = Panicum dichotomiflorum, post-emergence, Postemergence, 62 g ai/ha, scale 0 to 100, read-out: Plant response rating, Panicum, Fall
[6] = Panicum dichotomiflorum, post-emergence, Postemergence, 125 g ai/ha, scale 0 to 100, read-out: Plant response rating, Panicum, Fall
[7] = Panicum dichotomiflorum, post-emergence, postemergence, 16 g ai/ha, scale 0 to 100, 0 no effect, 100 complete control, read-out: Plant response rating, Panicum, Fall
[8] = Echinochloa crus-galli, post-emergence, Postemergence, 31 g ai/ha, scale 0 to 100, read-out: Plant response rating, Barnyardgrass
[9] = Echinochloa crus-galli, post-emergence, Postemergence, 62 g ai/ha, scale 0 to 100, read-out: Plant response rating, Barnyardgrass
[10] = Echinochloa crus-galli, post-emergence, Postemergence, 125 g ai/ha, scale 0 to 100, read-out: Plant response rating, Barnyardgrass
[11] = Echinochloa crus-galli, post-emergence, postemergence, 16 g ai/ha, scale 0 to 100, 0 no effect, 100 complete control, read-out: Plant response rating, Barnyardgrass
[12] = Postemergence, 31 g ai/ha, scale 0 to 100
[13] = Postemergence, 62 g ai/ha, scale 0 to 100
[14] = Postemergence, 125 g ai/ha, scale 0 to 100
[15] = postemergence, 8 g ai/ha, scale 0 to 100, 0 no effect, 100 complete control
[16] = postemergence, 16 g ai/ha, scale 0 to 100, 0 no effect, 100 complete control

Structure (SMILES): Clc1cnn(-c2ccccc2Oc2ncc(Br)cn2)c1 [Compound 5, 5-bromo-2-[2-(4-chloro-1H-pyrazol-1-yl)phenoxy]pyrimidine]
- plant response (crop injury) rating, soybean, 0-100 scale at 31 g/ha (soybean; [1]): 30%
- plant response (crop injury) rating, soybean, 0-100 scale at 62 g/ha (soybean; [2]): 70%
- plant response (crop injury) rating, soybean, 0-100 scale at 125 g/ha (soybean; [3]): 80%
- plant response (crop injury) rating, soybean, 0-100 scale at 250 g/ha (soybean; Glycine max, post-emergence, Postemergence, 250 g ai/ha, scale 0 to 100): 95%
- plant response (crop injury) rating, soybean, 0-100 scale at 16 g/ha (soybean; [4]): 20%
- pest or weed control at 62 g/ha (fall panicum; [5]): 0%
- pest or weed control at 125 g/ha (fall panicum; [6]): 0%
- pest or weed control at 250 g/ha (fall panicum; Panicum dichotomiflorum, post-emergence, Postemergence, 250 g ai/ha, scale 0 to 100, read-out: Plant response rating, Panicum, Fall): 0%
- pest or weed control at 16 g/ha (fall panicum; [7]): 0%
- pest or weed control at 31 g/ha (barnyardgrass; [8]): 0%
- pest or weed control at 62 g/ha (barnyardgrass; [9]): 0%
- pest or weed control at 125 g/ha (barnyardgrass; [10]): 0%
- pest or weed control at 250 g/ha (barnyardgrass; Echinochloa crus-galli, post-emergence, Postemergence, 250 g ai/ha, scale 0 to 100, read-out: Plant response rating, Barnyardgrass): 10%
- pest or weed control at 16 g/ha (barnyardgrass; [11]): 0%

Structure (SMILES): FC(F)c1cnn(-c2ccccc2Oc2ncc(Cl)cn2)c1 [Compound 80, 5-chloro-2-[2-[4-(difluoromethyl)-1H-pyrazol-1-yl]phenoxy]pyrimidine]
- Plant response rating, Sedge, Umbrella (sedge, umbrella; 250 g ai/ha): 0
- Plant response rating, Sedge, Umbrella (sedge, umbrella; 500 g ai/ha): 0
- Plant response rating, Sedge, Umbrella (sedge, umbrella; 1000 g ai/ha): 60
- Plant response rating, Sedge, Umbrella (sedge, umbrella; 2000 g ai/ha): 85

Structure (SMILES): N#Cc1cccc(Oc2ncc(Cl)cn2)c1-n1cc(OC(F)F)cn1 [Compound 97]
- Plant response rating, Sedge, Umbrella (sedge, umbrella; 31 g ai/ha): 60
- Plant response rating, Sedge, Umbrella (sedge, umbrella; 62 g ai/ha): 60
- Plant response rating, Sedge, Umbrella (sedge, umbrella; 125 g ai/ha): 75
- Plant response rating, Sedge, Umbrella (sedge, umbrella; 250 g ai/ha): 80

Structure (SMILES): Fc1cccc(Oc2ncc(Cl)cn2)c1-n1cc(C(F)F)nn1 [Compound 141, 5-chloro-2-[2-[4-(difluoromethyl)-1H-1,2,3-triazol-1-yl]-3-fluorophenoxy]pyrimidine]
- Plant response rating, Sedge, Umbrella (sedge, umbrella; 31 g ai/ha): 0
- Plant response rating, Sedge, Umbrella (sedge, umbrella; 62 g ai/ha): 40
- Plant response rating, Sedge, Umbrella (sedge, umbrella; 125 g ai/ha): 75
- Plant response rating, Sedge, Umbrella (sedge, umbrella; 250 g ai/ha): 100

Structure (SMILES): Fc1cccc(Oc2ncc(Cl)cn2)c1-n1cc(Cl)cn1 [Compound 177]
- Plant response rating, Sedge, Umbrella (sedge, umbrella; 31 g ai/ha): 0
- Plant response rating, Sedge, Umbrella (sedge, umbrella; 62 g ai/ha): 0
- Plant response rating, Sedge, Umbrella (sedge, umbrella; 125 g ai/ha): 60
- Plant response rating, Sedge, Umbrella (sedge, umbrella; 250 g ai/ha): 85

Structure (SMILES): FC(F)(F)c1cnn(-c2c(Br)cccc2Oc2ncc(Cl)cn2)c1 [Compound 191]
- Plant response rating, Sedge, Umbrella (sedge, umbrella; 31 g ai/ha): 40
- Plant response rating, Sedge, Umbrella (sedge, umbrella; 62 g ai/ha): 60
- Plant response rating, Sedge, Umbrella (sedge, umbrella; 125 g ai/ha): 85
- Plant response rating, Sedge, Umbrella (sedge, umbrella; 250 g ai/ha): 98
- Plant response rating, Soybean (soybean; [12]): 60
- Plant response rating, Soybean (soybean; [13]): 50
- Plant response rating, Soybean (soybean; [14]): 95
- Plant response rating, Soybean (soybean; [15]): 20
- Plant response rating, Soybean (soybean; [16]): 30
- Plant response rating, Panicum, Fall (fall panicum; [12]): 5
- Plant response rating, Panicum, Fall (fall panicum; [13]): 10
- Plant response rating, Panicum, Fall (fall panicum; [14]): 20
- Plant response rating, Panicum, Fall (fall panicum; [15]): 0
- Plant response rating, Panicum, Fall (fall panicum; [16]): 0
- Plant response rating, Barnyardgrass (barnyardgrass; [12]): 0
- Plant response rating, Barnyardgrass (barnyardgrass; [13]): 0
- Plant response rating, Barnyardgrass (barnyardgrass; [14]): 0
- Plant response rating, Barnyardgrass (barnyardgrass; [15]): 0
- Plant response rating, Barnyardgrass (barnyardgrass; [16]): 0

Structure (SMILES): FC(F)c1cnn(-c2c(Cl)cccc2Oc2ncc(Cl)cn2)c1 [Compound 192]
- Plant response rating, Sedge, Umbrella (sedge, umbrella; 31 g ai/ha): 0
- Plant response rating, Sedge, Umbrella (sedge, umbrella; 62 g ai/ha): 0
- Plant response rating, Sedge, Umbrella (sedge, umbrella; 125 g ai/ha): 50
- Plant response rating, Sedge, Umbrella (sedge, umbrella; 250 g ai/ha): 85

Structure (SMILES): Clc1cnc(Oc2ccccc2-n2cc(Br)nn2)nc1 [Compound 223]
- Plant response rating, Soybean (soybean; [12]): 95
- Plant response rating, Soybean (soybean; [13]): 98
- Plant response rating, Soybean (soybean; [14]): 98
- Plant response rating, Soybean (soybean; [15]): 30
- Plant response rating, Soybean (soybean; [16]): 60
- Plant response rating, Panicum, Fall (fall panicum; [12]): 0
- Plant response rating, Panicum, Fall (fall panicum; [13]): 0
- Plant response rating, Panicum, Fall (fall panicum; [14]): 0
- Plant response rating, Panicum, Fall (fall panicum; [15]): 0
- Plant response rating, Panicum, Fall (fall panicum; [16]): 0
- Plant response rating, Barnyardgrass (barnyardgrass; [12]): 0
- Plant response rating, Barnyardgrass (barnyardgrass; [13]): 0
- Plant response rating, Barnyardgrass (barnyardgrass; [14]): 0
- Plant response rating, Barnyardgrass (barnyardgrass; [15]): 0
- Plant response rating, Barnyardgrass (barnyardgrass; [16]): 0

Structure (SMILES): N#Cc1cccc(Oc2ncc(Cl)cn2)c1-n1cc(OCC(F)(F)F)cn1 [Compound 274, 3-[(5-chloro-2-pyrimidinyl)oxy]-2-[4-(2,2,2-trifluoroethoxy)-1H-pyrazol-1-yl]benzonitrile]
- plant response (crop injury) rating, soybean, 0-100 scale at 31 g/ha (soybean; [1]): 75%
- plant response (crop injury) rating, soybean, 0-100 scale at 62 g/ha (soybean; [2]): 95%
- plant response (crop injury) rating, soybean, 0-100 scale at 125 g/ha (soybean; [3]): 95%
- plant response (crop injury) rating, soybean, 0-100 scale at 8 g/ha (soybean; Glycine max, post-emergence, postemergence, 8 g ai/ha, scale 0 to 100, 0 no effect, 100 complete control): 20%
- plant response (crop injury) rating, soybean, 0-100 scale at 16 g/ha (soybean; [4]): 35%
- pest or weed control at 31 g/ha (fall panicum; Panicum dichotomiflorum, post-emergence, Postemergence, 31 g ai/ha, scale 0 to 100, read-out: Plant response rating, Panicum, Fall): 20%
- pest or weed control at 62 g/ha (fall panicum; [5]): 50%
- pest or weed control at 125 g/ha (fall panicum; [6]): 20%
- pest or weed control at 8 g/ha (fall panicum; Panicum dichotomiflorum, post-emergence, postemergence, 8 g ai/ha, scale 0 to 100, 0 no effect, 100 complete control, read-out: Plant response rating, Panicum, Fall): 10%
- pest or weed control at 16 g/ha (fall panicum; [7]): 15%
- pest or weed control at 31 g/ha (barnyardgrass; [8]): 20%
- pest or weed control at 62 g/ha (barnyardgrass; [9]): 10%
- pest or weed control at 125 g/ha (barnyardgrass; [10]): 60%
- pest or weed control at 8 g/ha (barnyardgrass; Echinochloa crus-galli, post-emergence, postemergence, 8 g ai/ha, scale 0 to 100, 0 no effect, 100 complete control, read-out: Plant response rating, Barnyardgrass): 5%
- pest or weed control at 16 g/ha (barnyardgrass; [11]): 10%
